Experimental data reported in the kinase profiling compilation of Christmann-Franck et al. (2016).
Where “and” joins values, the source holds several entries; their conditions need not be identical. Identical values can stand only once.

Key:
Test in all cases: KINOMEscan competition binding
Conditions in all cases: compound 10.0 µM
ADCK3 (human) = ADCK3 (human) (UniProt Q8NI60)
AURKC (human) = AURKC (human) (UniProt Q9UQB9)
BRSK1 (human) = BRSK1 (human) (UniProt Q8TDC3)
CAMK2D (human) = CAMK2D (human) (UniProt Q13557)
CDC42BPA (human) = CDC42BPA (human) (UniProt Q5VT25)
CDK17 (human) = CDK17 (human) (UniProt Q00537)
CDK9 (human) = CDK9 (human) (UniProt P50750)
CLK3 (human) = CLK3 (human) (UniProt P49761)
DDR2 (human) = DDR2 (human) (UniProt Q16832)
[1] = tested on: EGFR (human), P00533 [G719C]
[2] = tested on: FGFR3 (human), P22607 [G697C]
FLT3 (human) = FLT3 (human) (UniProt P36888)
[3] = tested on: FLT3 (human), P36888 [D835Y]
GRK1 (human) = GRK1 (human) (UniProt Q15835)
GRK4 (human) = GRK4 (human) (UniProt P32298)
[4] = tested on: LRRK2 (human), Q5S007 [G2019S]
MAP3K10 (human) = MAP3K10 (human) (UniProt Q02779)
MAP3K12 (human) = MAP3K12 (human) (UniProt Q12852)
MAPK3 (human) = MAPK3 (human) (UniProt P27361)
MARK1 (human) = MARK1 (human) (UniProt Q9P0L2)
MYO3A (human) = MYO3A (human) (UniProt Q8NEV4)
NEK11 (human) = NEK11 (human) (UniProt Q8NG66)
NEK3 (human) = NEK3 (human) (UniProt P51956)
NEK4 (human) = NEK4 (human) (UniProt P51957)
PAK1 (human) = PAK1 (human) (UniProt Q13153)
PDGFRB (human) = PDGFRB (human) (UniProt P09619)
PHKG1 (human) = PHKG1 (human) (UniProt Q16816)
PLK4 (human) = PLK4 (human) (UniProt O00444)
PRKAA1 (human) = PRKAA1 (human) (UniProt Q13131)
PRKCE (human) = PRKCE (human) (UniProt Q02156)
PRKCH (human) = PRKCH (human) (UniProt P24723)
PRKD1 (human) = PRKD1 (human) (UniProt Q15139)
RPS6KA1 KD1 (human) = RPS6KA1 KD1 (human) (UniProt Q15418)
STK16 (human) = STK16 (human) (UniProt O75716)
STK35 (human) = STK35 (human) (UniProt Q8TDR2)
STK38 (human) = STK38 (human) (UniProt Q15208)
TLK2 (human) = TLK2 (human) (UniProt Q86UE8)
TNNI3K (human) = TNNI3K (human) (UniProt Q59H18)
TTK (human) = TTK (human) (UniProt P33981)
TXK (human) = TXK (human) (UniProt P42681)

Sequence of GRK1 (human) (Q15835 whole entry, looked up): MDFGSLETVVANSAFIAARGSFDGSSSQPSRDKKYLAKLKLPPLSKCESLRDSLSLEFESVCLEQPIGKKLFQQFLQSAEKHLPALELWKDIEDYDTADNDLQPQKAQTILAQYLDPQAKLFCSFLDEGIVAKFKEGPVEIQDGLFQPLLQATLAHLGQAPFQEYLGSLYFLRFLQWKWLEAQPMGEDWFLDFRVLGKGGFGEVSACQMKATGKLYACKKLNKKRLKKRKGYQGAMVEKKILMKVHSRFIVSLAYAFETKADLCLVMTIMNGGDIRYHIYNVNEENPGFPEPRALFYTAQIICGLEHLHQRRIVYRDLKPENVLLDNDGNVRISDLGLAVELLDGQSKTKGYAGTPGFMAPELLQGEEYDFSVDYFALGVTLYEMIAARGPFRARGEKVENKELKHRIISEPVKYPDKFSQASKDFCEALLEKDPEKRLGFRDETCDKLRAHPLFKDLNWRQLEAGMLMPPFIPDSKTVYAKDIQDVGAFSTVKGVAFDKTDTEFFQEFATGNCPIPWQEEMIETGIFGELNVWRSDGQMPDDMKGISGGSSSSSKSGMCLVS
Sequence of LRRK2 (human), Q5S007 [G2019S] (Q5S007 whole entry G2019S, looked up): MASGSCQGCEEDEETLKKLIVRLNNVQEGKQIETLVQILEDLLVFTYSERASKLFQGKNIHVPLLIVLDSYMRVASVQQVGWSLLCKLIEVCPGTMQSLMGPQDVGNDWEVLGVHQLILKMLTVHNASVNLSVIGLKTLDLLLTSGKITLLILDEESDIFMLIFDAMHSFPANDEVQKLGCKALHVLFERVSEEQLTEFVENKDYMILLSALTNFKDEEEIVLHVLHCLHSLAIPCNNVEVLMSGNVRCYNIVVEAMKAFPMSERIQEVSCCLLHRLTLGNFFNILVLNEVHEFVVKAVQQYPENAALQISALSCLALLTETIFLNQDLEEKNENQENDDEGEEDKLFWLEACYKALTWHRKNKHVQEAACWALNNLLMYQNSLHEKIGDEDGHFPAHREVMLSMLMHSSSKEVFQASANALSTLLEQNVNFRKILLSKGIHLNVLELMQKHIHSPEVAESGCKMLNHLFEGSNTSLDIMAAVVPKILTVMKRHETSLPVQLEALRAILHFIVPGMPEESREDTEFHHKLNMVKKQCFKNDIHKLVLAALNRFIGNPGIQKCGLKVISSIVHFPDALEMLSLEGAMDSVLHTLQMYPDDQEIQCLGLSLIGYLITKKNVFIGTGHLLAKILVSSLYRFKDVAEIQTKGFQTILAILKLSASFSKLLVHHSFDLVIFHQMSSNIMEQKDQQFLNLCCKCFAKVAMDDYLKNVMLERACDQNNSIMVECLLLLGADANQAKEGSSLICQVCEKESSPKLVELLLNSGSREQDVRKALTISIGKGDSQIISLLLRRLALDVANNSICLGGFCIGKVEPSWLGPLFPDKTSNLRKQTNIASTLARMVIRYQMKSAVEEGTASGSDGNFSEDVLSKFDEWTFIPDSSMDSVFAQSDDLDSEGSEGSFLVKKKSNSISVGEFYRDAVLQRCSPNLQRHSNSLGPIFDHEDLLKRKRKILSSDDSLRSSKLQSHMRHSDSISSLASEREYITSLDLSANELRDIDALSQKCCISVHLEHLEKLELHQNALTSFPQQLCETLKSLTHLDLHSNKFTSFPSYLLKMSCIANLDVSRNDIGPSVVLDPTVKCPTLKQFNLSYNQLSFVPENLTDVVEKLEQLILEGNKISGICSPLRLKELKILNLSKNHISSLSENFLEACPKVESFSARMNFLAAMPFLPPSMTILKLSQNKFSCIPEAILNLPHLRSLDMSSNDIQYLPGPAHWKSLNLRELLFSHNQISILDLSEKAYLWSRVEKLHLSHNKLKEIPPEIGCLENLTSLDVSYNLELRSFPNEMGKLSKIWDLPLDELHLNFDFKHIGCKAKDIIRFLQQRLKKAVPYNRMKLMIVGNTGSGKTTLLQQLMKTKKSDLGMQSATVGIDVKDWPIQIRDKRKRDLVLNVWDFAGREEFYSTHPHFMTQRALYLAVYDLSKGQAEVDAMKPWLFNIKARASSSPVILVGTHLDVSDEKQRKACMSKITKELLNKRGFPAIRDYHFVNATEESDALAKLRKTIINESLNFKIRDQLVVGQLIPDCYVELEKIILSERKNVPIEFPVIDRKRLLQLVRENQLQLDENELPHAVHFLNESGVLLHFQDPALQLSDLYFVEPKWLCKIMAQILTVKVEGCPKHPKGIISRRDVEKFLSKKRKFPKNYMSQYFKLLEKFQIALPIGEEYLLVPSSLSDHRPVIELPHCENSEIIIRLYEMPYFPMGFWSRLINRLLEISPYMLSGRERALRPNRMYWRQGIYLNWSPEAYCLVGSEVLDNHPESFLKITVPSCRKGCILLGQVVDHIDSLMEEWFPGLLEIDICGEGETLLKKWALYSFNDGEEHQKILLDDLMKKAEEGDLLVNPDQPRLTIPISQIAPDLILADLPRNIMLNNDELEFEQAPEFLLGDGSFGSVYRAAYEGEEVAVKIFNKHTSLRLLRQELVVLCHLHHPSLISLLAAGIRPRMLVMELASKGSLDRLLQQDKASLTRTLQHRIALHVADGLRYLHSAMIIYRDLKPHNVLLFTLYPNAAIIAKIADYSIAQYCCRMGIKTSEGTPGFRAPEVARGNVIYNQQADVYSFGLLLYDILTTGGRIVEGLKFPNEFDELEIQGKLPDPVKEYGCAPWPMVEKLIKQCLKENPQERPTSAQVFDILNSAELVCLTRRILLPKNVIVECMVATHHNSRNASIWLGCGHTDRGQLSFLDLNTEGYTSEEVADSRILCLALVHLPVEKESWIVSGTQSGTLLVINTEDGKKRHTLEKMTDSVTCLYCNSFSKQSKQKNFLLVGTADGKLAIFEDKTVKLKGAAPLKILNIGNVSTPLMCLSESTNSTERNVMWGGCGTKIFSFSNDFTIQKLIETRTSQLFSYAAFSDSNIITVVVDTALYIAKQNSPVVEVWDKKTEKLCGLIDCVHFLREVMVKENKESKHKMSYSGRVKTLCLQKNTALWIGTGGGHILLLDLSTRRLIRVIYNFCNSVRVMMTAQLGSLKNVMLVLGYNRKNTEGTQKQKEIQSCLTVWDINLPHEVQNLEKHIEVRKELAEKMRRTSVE
Sequence of PRKAA1 (human) (Q13131 whole entry, looked up): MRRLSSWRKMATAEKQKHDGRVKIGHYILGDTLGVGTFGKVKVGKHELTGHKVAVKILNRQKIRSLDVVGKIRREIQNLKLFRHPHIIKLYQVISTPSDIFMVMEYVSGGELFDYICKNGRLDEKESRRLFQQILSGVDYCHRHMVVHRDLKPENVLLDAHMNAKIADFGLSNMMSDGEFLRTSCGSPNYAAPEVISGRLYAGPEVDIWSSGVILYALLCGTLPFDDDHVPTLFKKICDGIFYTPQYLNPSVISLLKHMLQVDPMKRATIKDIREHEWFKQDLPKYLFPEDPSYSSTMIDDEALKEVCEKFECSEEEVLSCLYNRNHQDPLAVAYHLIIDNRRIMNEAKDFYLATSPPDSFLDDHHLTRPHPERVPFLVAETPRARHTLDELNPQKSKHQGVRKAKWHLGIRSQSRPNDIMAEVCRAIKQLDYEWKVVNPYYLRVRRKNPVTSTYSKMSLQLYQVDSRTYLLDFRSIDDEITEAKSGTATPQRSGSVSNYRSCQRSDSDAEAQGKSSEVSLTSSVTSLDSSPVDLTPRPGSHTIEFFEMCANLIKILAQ
Sequence of STK35 (human) (Q8TDR2 whole entry, looked up): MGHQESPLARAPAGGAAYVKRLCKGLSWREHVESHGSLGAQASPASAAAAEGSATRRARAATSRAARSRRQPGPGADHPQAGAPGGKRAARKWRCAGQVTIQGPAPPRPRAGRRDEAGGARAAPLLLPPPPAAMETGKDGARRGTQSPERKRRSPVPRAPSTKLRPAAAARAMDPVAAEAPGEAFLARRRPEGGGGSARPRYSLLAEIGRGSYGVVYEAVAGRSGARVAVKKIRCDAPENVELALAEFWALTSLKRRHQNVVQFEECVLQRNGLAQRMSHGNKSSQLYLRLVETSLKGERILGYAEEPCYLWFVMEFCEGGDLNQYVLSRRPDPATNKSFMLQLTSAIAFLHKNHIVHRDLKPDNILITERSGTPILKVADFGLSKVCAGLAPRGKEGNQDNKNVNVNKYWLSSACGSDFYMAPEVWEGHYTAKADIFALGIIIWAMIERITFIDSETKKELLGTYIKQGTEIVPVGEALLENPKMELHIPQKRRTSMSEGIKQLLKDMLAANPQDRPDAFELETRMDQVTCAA
Sequence of TNNI3K (human) (Q59H18 whole entry, looked up): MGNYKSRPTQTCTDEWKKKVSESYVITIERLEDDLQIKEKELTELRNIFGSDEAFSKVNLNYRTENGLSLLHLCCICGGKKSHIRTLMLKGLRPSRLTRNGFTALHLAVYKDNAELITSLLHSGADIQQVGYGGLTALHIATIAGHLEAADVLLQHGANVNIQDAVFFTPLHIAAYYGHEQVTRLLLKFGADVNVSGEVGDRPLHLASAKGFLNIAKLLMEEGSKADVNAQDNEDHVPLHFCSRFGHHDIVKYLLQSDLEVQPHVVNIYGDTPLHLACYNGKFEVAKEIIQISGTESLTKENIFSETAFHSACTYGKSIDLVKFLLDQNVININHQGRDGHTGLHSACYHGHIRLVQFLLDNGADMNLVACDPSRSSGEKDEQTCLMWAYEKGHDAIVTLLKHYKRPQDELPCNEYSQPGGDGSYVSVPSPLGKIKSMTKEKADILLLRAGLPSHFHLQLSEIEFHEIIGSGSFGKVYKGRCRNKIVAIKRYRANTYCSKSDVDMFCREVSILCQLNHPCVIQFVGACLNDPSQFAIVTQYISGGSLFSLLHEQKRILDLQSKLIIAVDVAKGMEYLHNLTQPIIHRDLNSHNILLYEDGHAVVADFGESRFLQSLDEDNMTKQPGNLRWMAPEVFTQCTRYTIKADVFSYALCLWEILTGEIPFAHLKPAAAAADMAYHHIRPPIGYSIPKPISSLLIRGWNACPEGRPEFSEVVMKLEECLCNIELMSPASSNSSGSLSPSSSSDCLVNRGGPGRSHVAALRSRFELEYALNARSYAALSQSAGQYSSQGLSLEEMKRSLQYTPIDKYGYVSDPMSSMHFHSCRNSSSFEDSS

SMILES	kinase still bound, per cent of control (ADCK3 (human))	kinase still bound, per cent of control (AURKC (human))	kinase still bound, per cent of control (BRSK1 (human))	kinase still bound, per cent of control (CAMK2D (human))	kinase still bound, per cent of control (CDC42BPA (human))	kinase still bound, per cent of control (CDK17 (human))	kinase still bound, per cent of control (CDK9 (human))	kinase still bound, per cent of control (CLK3 (human))	kinase still bound, per cent of control (DDR2 (human))	kinase still bound, per cent of control [1]	kinase still bound, per cent of control [2]	kinase still bound, per cent of control (FLT3 (human))	kinase still bound, per cent of control [3]	kinase still bound, per cent of control (GRK1 (human))	kinase still bound, per cent of control (GRK4 (human))	kinase still bound, per cent of control [4]	kinase still bound, per cent of control (MAP3K10 (human))	kinase still bound, per cent of control (MAP3K12 (human))	kinase still bound, per cent of control (MAPK3 (human))	kinase still bound, per cent of control (MARK1 (human))	further results
COc1cc2ncnc(Nc3cccc(Cl)c3)c2cc1OC	56%	49%	37%	61%	77%	79%	100%	100%	42%	0.1%	100%	42% and 58%	11%	100%	100%	67%	100%	92%	88%	100%	kinase still bound, per cent of control (MYO3A (human)): 83%; kinase still bound, per cent of control (NEK11 (human)): 99%; kinase still bound, per cent of control (NEK3 (human)): 78%; kinase still bound, per cent of control (NEK4 (human)): 76%; kinase still bound, per cent of control (PAK1 (human)): 85%; kinase still bound, per cent of control (PDGFRB (human)): 30%; kinase still bound, per cent of control (PHKG1 (human)): 67%; kinase still bound, per cent of control (PLK4 (human)): 30%; kinase still bound, per cent of control (PRKAA1 (human)): 100%; kinase still bound, per cent of control (PRKCE (human)): 75%; kinase still bound, per cent of control (PRKCH (human)): 100%; kinase still bound, per cent of control (PRKD1 (human)): 89%; kinase still bound, per cent of control (RPS6KA1 KD1 (human)): 93%; kinase still bound, per cent of control (STK16 (human)): 97%; kinase still bound, per cent of control (STK35 (human)): 58%; kinase still bound, per cent of control (STK38 (human)): 61%; kinase still bound, per cent of control (TLK2 (human)): 100%; kinase still bound, per cent of control (TNNI3K (human)): 38%; kinase still bound, per cent of control (TTK (human)): 61%; kinase still bound, per cent of control (TXK (human)): 63%
COc1cc2c(Nc3ccc(NC(=O)c4ccccc4)cc3)ncnc2cc1OCCCN1CCOCC1	90%	23%	79%	100%	85%	94%	100%	100%	100%	0.45%	100%	8.8%	44%	100%	100%	100%	86%	35%	100%	100%	kinase still bound, per cent of control (MYO3A (human)): 79%; kinase still bound, per cent of control (NEK11 (human)): 100%; kinase still bound, per cent of control (NEK3 (human)): 100%; kinase still bound, per cent of control (NEK4 (human)): 57%; kinase still bound, per cent of control (PAK1 (human)): 82%; kinase still bound, per cent of control (PDGFRB (human)): 1.1%; kinase still bound, per cent of control (PHKG1 (human)): 53%; kinase still bound, per cent of control (PLK4 (human)): 2%; kinase still bound, per cent of control (PRKAA1 (human)): 62%; kinase still bound, per cent of control (PRKCE (human)): 100%; kinase still bound, per cent of control (PRKCH (human)): 100%; kinase still bound, per cent of control (PRKD1 (human)): 99%; kinase still bound, per cent of control (RPS6KA1 KD1 (human)): 72%; kinase still bound, per cent of control (STK16 (human)): 100%; kinase still bound, per cent of control (STK35 (human)): 64%; kinase still bound, per cent of control (STK38 (human)): 92%; kinase still bound, per cent of control (TLK2 (human)): 100%; kinase still bound, per cent of control (TNNI3K (human)): 94%; kinase still bound, per cent of control (TTK (human)): 40%; kinase still bound, per cent of control (TXK (human)): 99%
